Data taken from PubChem BioAssay AID1259411 (Chemical Carcinogenesis Research Information System (CCRIS), 2018).
Activity calls are given as the source filed them. The rule behind the calls is not given here.

System: rodent carcinogenicity bioassays, tumor incidence
Experiment: CCRIS carcinogenicity studies
Outline: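 Archive of carcinogenicity, mutagenicity, tumor promotion and tumor inhibition results drawn from journals, NCI reports and other sources, expert-reviewed; covers 1985-2011 and is no longer updated.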

SMILES: S=[Se]
- carcinogen call (Species: MOUSE, Strain/Sex: B6C3F1/FEMALE, Route: GAVAGE, Dose: 0, 20, 100 MG/KG IN 0.5% AQ CMC, Dose: 0, 20, 100 MG/KG IN 0.5% AQ CMC, Tumor Site: Type of Lesion: LUNG: ALVEOLAR/BRONCHIOLAR ADENOMA OR CARCINOMA, LIVER: HEPATOCELLULAR CARCINOMA): active; positive
- carcinogen call (Species: MOUSE, Strain/Sex: B6C3F1/MALE, Route: GAVAGE, Dose: 0, 20, 100 MG/KG IN 0.5% AQ CMC, Dose: 0, 20, 100 MG/KG IN 0.5% AQ CMC): inactive; negative
- carcinogen call (Species: MOUSE, Strain/Sex: ICR/FEMALE, Route: DERMAL, Dose: 0, 0.5, 1.0 MG/KG IN SALINE SOLN CONT 0.5% CMC 3/WK FOR 86 WK, Dose: 0, 0.5, 1.0 MG/KG IN SALINE SOLN CONT 0.5% CMC 3/WK FOR 86 WK): inactive; negative
- carcinogen call (Species: MOUSE, Strain/Sex: ICR/MALE, Route: DERMAL, Dose: 0, 0.5, 1.0 MG/KG IN SALINE SOLN CONT 0.5% CMC 3/WK FOR 86 WK, Dose: 0, 0.5, 1.0 MG/KG IN SALINE SOLN CONT 0.5% CMC 3/WK FOR 86 WK): inactive; negative
- carcinogen call (Species: RAT, Strain/Sex: F344/FEMALE, Route: GAVAGE, Dose: 0, 3, 15 MG/KG IN 0.5% AQ CMC, Dose: 0, 3, 15 MG/KG IN 0.5% AQ CMC, Tumor Site: Type of Lesion: LIVER: HEPATOCELLULAR CARCINOMA OR NEOPLASTIC NODULE): active; positive
- carcinogen call (Species: RAT, Strain/Sex: F344/MALE, Route: GAVAGE, Dose: 0, 3, 15 MG/KG IN 0.5% AQ CMC, Dose: 0, 3, 15 MG/KG IN 0.5% AQ CMC, Tumor Site: Type of Lesion: LIVER: HEPATOCELLULAR CARCINOMA OR NEOPLASTIC NODULE): active; positive

SMILES: O=[N+]([O-])c1ccc2c(c1)Cc1cc([N+](=O)[O-])ccc1-2
- carcinogen call (Species: Rat, Strain/Sex: Sprague-Dawley/Female (16/group), Route: Intraperitoneal, Dose: 10 umol/kg 3 times a wk for 4 wk (avg total dose 16.0 umol/rat), animals retained for up to 90 wk after last dosing (Tes, Tumor Site: Type of Lesion: Mammary Gland: % of rats with tumors (malignant 44, benign 38 vs 6 malignant, 53 benign in vehicle controls)): active; positive for malignant tumors only (p=0.02). dna adducts observed in mammary gla
- carcinogen call (Species: Rat, Strain/Sex: Sprague-Dawley/Female (17/group), Route: Oral, Dose: 10 umol/kg 3 times a wk for 4 wk (avg total dose 18.0 umol/rat), animals retained for up to 90 wk after last dosing (Tes, Tumor Site: Type of Lesion: Mammary Gland: % of rats with tumors (malignant 29, benign 53 vs 12 malignant, 53 benign in vehicle controls)): inactive; negative. dna adducts observed in mammary gland dna collected 24 hr after last d

SMILES: Cc1cccc(C)c1NC(=O)CN1CCCC1=O
- carcinogen call (Species: MOUSE, Strain/Sex: B6C3F1/FEMALE, Route: ORAL, Dose: 0, 30, 90, 270 MG/KG/D IN DIET FOR 104 WK (STUDY DURATION: 104 WK), Dose: 0, 30, 90, 270 MG/KG/D IN DIET FOR 104 WK (STUDY DURATION: 104 WK)): inactive; negative
- carcinogen call (Species: MOUSE, Strain/Sex: B6C3F1/MALE, Route: ORAL, Dose: 0, 30, 90, 270 MG/KG/D IN DIET FOR 104 WK (STUDY DURATION: 104 WK), Dose: 0, 30, 90, 270 MG/KG/D IN DIET FOR 104 WK (STUDY DURATION: 104 WK)): inactive; negative
- carcinogen call (Species: RAT, Strain/Sex: F344/FEMALE, Route: ORAL, Dose: 0, 200, 600, 1800 PPM IN DIET FOR 104 WK (STUDY DURATION: 104 WK), Dose: 0, 200, 600, 1800 PPM IN DIET FOR 104 WK (STUDY DURATION: 104 WK)): inactive; negative
- carcinogen call (Species: RAT, Strain/Sex: F344/MALE, Route: ORAL, Dose: 0, 200, 600, 1800 PPM IN DIET FOR 104 WK (STUDY DURATION: 104 WK), Dose: 0, 200, 600, 1800 PPM IN DIET FOR 104 WK (STUDY DURATION: 104 WK)): inactive; negative

SMILES: CC1=C(C(=O)Nc2ccccc2)SCCO1
- carcinogen call (Species: Mouse, Strain/Sex: Charles River/Female (50 per group in experimental animals; 75 controls), Route: Oral, Dose: 0, 50, 2,500, 5,000 ppm in diet for 19 mo, Dose: 0, 50, 2,500, 5,000 ppm in diet for 19 mo): inactive; negative (purity >99%; study details not given in source)
- carcinogen call (Species: Mouse, Strain/Sex: Charles River/Male (50 per group in experimental animals; 75 controls), Route: Oral, Dose: 0, 50, 2,500, 5,000 ppm in diet for 19 mo, Dose: 0, 50, 2,500, 5,000 ppm in diet for 19 mo, Tumor Site: Type of Lesion: LUNG, Pulmonary adenomas and alveolar-bronchiolar adenomas (34% in high dose group vs 17% in controls; significant), Tumor Site: Type of Lesion: LUNG, Pulmonary adenomas and alveolar-bronchiolar adenomas (34% in high dose group vs 17% in controls; significant)): active; positive (purity >99%; study details not given in source)
- carcinogen call (Species: Rat, Strain/Sex: Crl:CD SD/Female (50 per group), Route: Oral, Dose: 0, 20, 300, 600 ppm in diet for 102 wk, Dose: 0, 20, 300, 600 ppm in diet for 102 wk): inactive; negative (purity 97.7%; study details not given in source)
- carcinogen call (Species: Rat, Strain/Sex: Crl:CD SD/Male (50 per group), Route: Oral, Dose: 0, 20, 200, 400 ppm in diet for 102 wk, Dose: 0, 20, 200, 400 ppm in diet for 102 wk): inactive; negative (purity 97.7%; study details not given in source)

SMILES: CC/C(C)=N\O
- carcinogen call (Species: MOUSE, Strain/Sex: CD-1/FEMALE, Route: INHALATION, Dose: 0, 15, 75, 374 PPM 6 HR/D 5 D/WK FOR 26 MO (STUDY DURATION: 26 MO), Dose: 0, 15, 75, 374 PPM 6 HR/D 5 D/WK FOR 26 MO (STUDY DURATION: 26 MO)): inactive; negative
- carcinogen call (Species: MOUSE, Strain/Sex: CD-1/MALE, Route: INHALATION, Dose: 0, 15, 75, 374 PPM 6 HR/D 5 D/WK FOR 26 MO (STUDY DURATION: 26 MO), Dose: 0, 15, 75, 374 PPM 6 HR/D 5 D/WK FOR 26 MO (STUDY DURATION: 26 MO), Tumor Site: Type of Lesion: LIVER: CARCINOMA, ADENOMA OR CARCINOMA): active; positive
- carcinogen call (Species: RAT, Strain/Sex: F344/FEMALE, Route: INHALATION, Dose: 0, 15, 75, 374 PPM 6 HR/D 5 D/WK FOR 26 MO (STUDY DURATION: 26 MO), Dose: 0, 15, 75, 374 PPM 6 HR/D 5 D/WK FOR 26 MO (STUDY DURATION: 26 MO)): inactive; negative
- carcinogen call (Species: RAT, Strain/Sex: F344/MALE, Route: INHALATION, Dose: 0, 15, 75, 374 PPM 6 HR/D 5 D/WK FOR 26 MO (STUDY DURATION: 26 MO), Dose: 0, 15, 75, 374 PPM 6 HR/D 5 D/WK FOR 26 MO (STUDY DURATION: 26 MO), Tumor Site: Type of Lesion: LIVER: ADENOMA, CARCINOMA, ADENOMA OR CARCINOMA): active; positive

SMILES: CC(C)NCC(O)c1ccc2ccccc2c1 (stereo not drawn)
- carcinogen call (Species: MOUSE, Route: ORAL, Tumor Site: Type of Lesion: THYROID GLAND): active; positive

SMILES: N#CS
- carcinogen call (Species: RAT, Strain/Sex: F344/FEMALE, Route: ORAL, Dose: 0, 0.32% IN DRINKING WATER 5 D/WK FOR 112 WK (STUDY DURATION: 130 WK)): inactive; negative
- carcinogen call (Species: RAT, Strain/Sex: F344/MALE, Route: ORAL, Dose: 0, 0.32% IN DRINKING WATER 5 D/WK FOR 112 WK (STUDY DURATION: 130 WK)): inactive; negative

SMILES: Cc1c(N(C)CS(=O)(=O)O)c(=O)n(-c2ccccc2)n1C
- carcinogen call (Species: MOUSE, Strain/Sex: B6C3F1/FEMALE, Route: ORAL, Dose: 0, 0.25, 1% IN DRINKING WATER FOR 78 WK (STUDY DURATION: 86 WK), Dose: 0, 0.25, 1% IN DRINKING WATER FOR 78 WK (STUDY DURATION: 86 WK), Tumor Site: Type of Lesion: LIVER: ADENOMA): active; positive
- carcinogen call (Species: MOUSE, Strain/Sex: B6C3F1/MALE, Route: ORAL, Dose: 0, 0.125, 0.5% IN DRINKING WATER FOR 78 WK (STUDY DURATION: 86 WK), Dose: 0, 0.125, 0.5% IN DRINKING WATER FOR 78 WK (STUDY DURATION: 86 WK), Tumor Site: Type of Lesion: LIVER: ADENOMA): active; positive
- carcinogen call (Species: RAT, Strain/Sex: F344/MALE, Route: ORAL, Dose: 0.4% IN DRINKING WATER FOR 72 WK (STUDY DURATION: 83 WK)): inactive; negative
- carcinogen call (Species: RAT, Strain/Sex: WISTAR/FEMALE, Route: ORAL, Dose: 0, 1000, 3000 PPM IN DIET FOR 24 MO (STUDY DURATION: 30 MO), Dose: 0, 1000, 3000 PPM IN DIET FOR 24 MO (STUDY DURATION: 30 MO)): inactive; negative
- carcinogen call (Species: RAT, Strain/Sex: WISTAR/MALE, Route: ORAL, Dose: 0, 1000, 3000 PPM IN DIET FOR 24 MO (STUDY DURATION: 30 MO), Dose: 0, 1000, 3000 PPM IN DIET FOR 24 MO (STUDY DURATION: 30 MO)): inactive; negative
